Assay results reported in the RepoRT retention time repository.

assay: Waters ACQUITY UPLC BEH C18, 100 × 2.1 mm, 1.7 µm, 40 °C, 0.3 to 0.4 mL/min, estimated dead time 0.63 min; A: water + 0.1% formic acid; B: methanol + 0.1% formic acid; gradient (min/%B) 0/0.5 0.1/0.5 10/80 10.1/99.5 12/99.5; conditions: stereoisomer not certain

| Compound | LC retention time [min] |
| --- | --- |
| COc1cc2c3cc1Oc1c(OC)c(OC)cc4c1C(Cc1ccc(cc1)Oc1cc(ccc1O)CC3N(C)CC2)N(C)CC4 (stereo unspecified) | 3.76 |
| CC1OC(OCC2OC(Oc3cc4c(O)cc(O)cc4[o+]c3-c3ccc(O)c(O)c3)C(OC3OC(CO)C(O)C(O)C3O)C(O)C2O)C(O)C(O)C1O (stereo unspecified) | 2.75 |
| CCOC1OC2c3cc4c(cc3CCN(C)C2c2ccc3c(c21)OCO3)OCO4 (stereo unspecified) | 5.15 |
| COc1ccc2cc1Oc1ccc(cc1)CC1=NCCc3cc(OC)c(cc31)Oc1c(OC)c(OC)c([O-])c3c1C(C2)[NH+](C)CC3 (stereo unspecified) | 3.96 |
| COc1ccc2c(c1OC)C(=O)OC2C1c2cc3c(cc2CCN1C)OCO3 (stereo unspecified) | 4.21 |
| COc1cc(C(O)C(CO)Oc2c(OC)cc(-c3cc(=O)c4c(O)cc(OC5OC(COC(=O)CC(=O)O)C(O)C(O)C5O)cc4o3)cc2OC)ccc1O (stereo unspecified) | 5.17 |
| O=c1c(OC2OC(CO)C(O)C(O)C2O)c(-c2ccc(OC3OC(CO)C(O)C(O)C3O)c(O)c2)oc2cc(O)cc(O)c12 (stereo unspecified) | 3.54 |
| O=C1CCCC2C3CCCN4CCCC(CN12)C34 (stereo unspecified) | 2.26 |
| CC1(C)CCC2(C(=O)O)CCC3(C)C(=CCC4C5(C)CC(O)C(O)C(C)(C)C5CCC43C)C2C1 (stereo unspecified) | 9.77 |
| OCC1OC(Oc2cc3c(OC4OC(CO)C(O)C(O)C4O)cc(O)cc3[o+]c2-c2ccc(O)c(O)c2)C(O)C(O)C1O (stereo unspecified) | 2.5 |
| CNC(=O)Oc1ccc2c(c1)C1(C)CCN(C)C1N2C (stereo unspecified) | 3.31 |
| Oc1ccc(CCc2cc(O)cc(O)c2)cc1 | 5.15 |
| O=C(O)C1CCC(=O)N1CC1(O)OC(CO)C(O)C1O (stereo unspecified) | 1.77 |
| Cc1nccc2c1[nH]c1ccccc12 | 3.7 |
| COc1c(CC=C(C)C)c(O)cc2c1C1Oc3cc(O)c(CC=C(C)C)cc3C1CO2 (stereo unspecified) | 9.29 |
| COc1cc(C(O)C(COC2OC(CO)C(O)C(O)C2O)Oc2c(OC)cc(-c3cc(=O)c4c(O)cc(O)cc4o3)cc2OC)ccc1O (stereo unspecified) | 4.57 |
| CC=C1CC(C)C(C)(O)C(=O)OCC2=CCN3CCC(OC1=O)C23 (stereo unspecified) | 3.8 |
| O=C(O)CC1CCC(=O)C1CC=CCCO (stereo unspecified) | 3.39 |
| CC(CCC1(O)OC2CC3C4CC=C5CC(OC6OC(CO)C(OC7OC(C)C(O)C(O)C7O)C(O)C6OC6OC(C)C(O)C(O)C6O)CCC5(C)C4CCC3(C)C2C1C)COC1OC(CO)C(O)C(O)C1O (stereo unspecified) | 5.05 |
| COc1ccc(C2OCC3C(c4ccc(OC5OC(CO)C(O)C(O)C5O)c(OC)c4)OCC23)cc1OC (stereo unspecified) | 5.13 |
| COC(=O)C1=C2Nc3ccccc3C23CCN2C4OC56C7CC4(CN5c4c(OC)cccc4C64CCN5CCC6OCCC6(C7)C54)C4OCCC4(C1)C23 (stereo unspecified) | 5.79 |
| COc1cc2c(cc1OC)C(C)=NCC2 | 2.93 |

| Compound | LC retention time [min] |
| --- | --- |
| O=c1cc(-c2ccc(O)c(O)c2)oc2c(C3OCC(O)C(O)C3O)c(O)c(C3OC(CO)C(O)C(O)C3O)c(O)c12 (stereo unspecified) | 3.35 |
| CC1(C)CC2C3=CCC4C5(C)CCC(OC6OC(C(=O)O)C(O)C(O)C6OC6OC(CO)C(O)C(O)C6OC6OC(CO)C(O)C(O)C6O)C(C)(CO)C5CCC4(C)C3(C)CCC2(C)C(O)C1O (stereo unspecified) | 5.81 |
| CC(=O)OC1CC(C)CNC12OC1CC3C4CCC5CC(OC6OC(CO)C(OC7OC(CO)C(O)C(OC8OCC(O)C(O)C8O)C7OC7OC(CO)C(O)C(O)C7O)C(O)C6O)CCC5(C)C4CCC3(C)C1C2C (stereo unspecified) | 4.78 |
| CC1(C)CCC2(C(=O)OC3OC(CO)C(O)C(O)C3O)CCC3(C)C(=CCC4C5(C)CCC(OC6OC(C(=O)O)C(O)C(O)C6OC6OC(CO)C(O)C(O)C6O)C(C)(C)C5CCC43C)C2C1 (stereo unspecified) | 6.18 |
| CC1OC(Oc2cc(O)c3c(=O)c(OC4OC(CO)C(O)C(O)C4OC4OC(C)C(O)C(O)C4O)c(-c4ccc(O)c(O)c4)oc3c2)C(O)C(O)C1O (stereo unspecified) | 3.09 |
| CC=C1CN(C)C2Cc3c([nH]c4ccccc34)C(c3cc4[nH]c5c(c4cc3OC)CCN3CC4CC(CC)C3C5(C(=O)OC)C4)CC1C2C(=O)OC (stereo unspecified) | 4.94 |
| COc1cc(C(O)C(CO)Oc2c(OC)cc(-c3cc(=O)c4c(O)cc(O)cc4o3)cc2OC)ccc1O (stereo unspecified) | 6.2 |
| C=C1CCCC2(C)CC3(O)OC(=O)C(C)=C3CC12 (stereo unspecified) | 7.91 |
| Nc1[nH]c(=O)[nH]c(=O)c1OC1OC(CO)C(O)C(O)C1O (stereo unspecified) | 2.01 |
| CCCC1CCCCN1 (stereo unspecified) | 2.78 |
| CC(C)=CCCC(C)(OC1OC(CO)C(O)C(O)C1O)C1CCC2(C)C1C(O)CC1C3(C)CCC(OC4OC(CO)C(O)C(O)C4O)C(C)(C)C3CCC12C (stereo unspecified) | 7.66 |
| CC1CCC2C(C)C3C(CC4C5CC=C6CC(O)CCC6(C)C5CC(O)C43CO)N2C1 (stereo unspecified) | 3.7 |
| COc1cc(-c2oc3cc(OC4OC(CO)C(O)C(O)C4O)cc(O)c3c(=O)c2OC2OC(CO)C(O)C(O)C2O)cc(OC2OC(CO)C(O)C(O)C2O)c1O (stereo unspecified) | 2.8 |
| COc1cc(-c2cc(=O)c3c(O)cc(OC4OC(C(=O)O)C(O)C(O)C4OC4OC(C(=O)O)C(O)C(O)C4O)cc3o2)cc(OC)c1O (stereo unspecified) | 3.96 |
| COc1cc(-c2cc(=O)c3c(O)c(C4OC(CO)C(O)C(O)C4OC4OC(CO)C(O)C(O)C4O)c(O)cc3o2)ccc1O (stereo unspecified) | 3.87 |
| CC1OC(OCC2OC(Oc3c(-c4ccc(O)c(O)c4)oc4cc(O)cc(O)c4c3=O)C(O)C(O)C2O)C(O)C(O)C1O (stereo unspecified) | 3.86 |
| O=C(O)C=C(CC(=O)O)C(=O)O | 1.61 |
| CC1CCC2C(C)C3C(CC4C5CC=C6CC(O)CCC6(C)C5CCC43C)N2C1 (stereo unspecified) | 5.99 |
| COc1ccc2cc1Oc1ccc(cc1)CC1=NCCc3cc(OC)c(cc31)Oc1c(OC)c(OC)c(O)c3c1C(C2)N(C)CC3 (stereo unspecified) | 3.96 |
| O=C1CC(c2ccc(O)c(O)c2)Oc2c1c(OC1OC(CO)C(O)C(O)C1O)cc(O)c2C1OCC(O)C(O)C1O (stereo unspecified) | 3.22 |
| CCCC(=O)OC(CC(=O)[O-])C[N+](C)(C)C (stereo unspecified) | 2.18 |

Results, then the molecule that gave them:

| LC retention time [min] | Compound |
| --- | --- |
| 4.1 | CC1OC(OCC2OC(Oc3c(-c4ccccc4O)oc4cc(O)cc(O)c4c3=O)C(O)C(O)C2O)C(O)C(O)C1O (stereo unspecified) |
| 4.01 | O=C(O)C1OC(Oc2c(-c3ccc(O)c(O)c3)oc3cc(O)cc(O)c3c2=O)C(O)C(O)C1O (stereo unspecified) |
| 4.05 | OCC1OC(Oc2cc(O)cc(C=Cc3ccc(O)cc3)c2)C(O)C(O)C1O (stereo unspecified) |
| 3.12 | OCC1OC(Oc2cc3c(O)cc(O)cc3[o+]c2-c2ccc(O)cc2)C(O)C(O)C1O (stereo unspecified) |
| 4.71 | COc1cc(C=CC(=O)OC2C(OC3COC(c4c(O)cc5oc(-c6ccc(O)cc6)cc(=O)c5c4O)C(O)C3O)OC(CO)C(O)C2O)ccc1O (stereo unspecified) |
| 5.15 | O=c1c(-c2ccc(O)cc2)coc2cc(O)ccc12 |
| 4.05 | COc1cc(-c2cc(=O)c3c(O)cc(OC4OC(C(=O)O)C(O)C(O)C4OC4OC(C(=O)O)C(O)C(O)C4O)cc3o2)ccc1O (stereo unspecified) |
| 4.53 | O=CC=Cc1ccc(O)cc1 |
| 3.06 | OCCc1c[nH]c2ccccc12 |
| 5.34 | O=c1cc(-c2ccc(O)c(O)c2)oc2cc(O)cc(O)c12 |
| 5.16 | O=C(O)CC(=O)OCC1OC(Oc2cc(O)c3c(=O)cc(-c4ccc(O)cc4)oc3c2)C(O)C(O)C1O (stereo unspecified) |
| 3.22 | Nc1ccc(C(=O)NC(CCC(=O)O)C(=O)O)cc1 (stereo unspecified) |
| 8.82 | CCOC1OC(=O)c2cc3ccc4c(c3c(-c3ccc5c(c3)OCO5)c21)OCO4 (stereo unspecified) |
| 4.52 | O=C1CC(c2ccc(O)cc2)Oc2cc(OC3OC(CO)C(O)C(O)C3O)cc(O)c21 (stereo unspecified) |
| 3.07 | NC(N)=NCCCCNC(=O)C=Cc1ccc(O)cc1 |
| 3.16 | O=C(O)CCC(NCC1(O)OCC(O)C(O)C1O)C(=O)NC(Cc1ccccc1)C(=O)O (stereo unspecified) |
| 6.57 | COc1ccc(C(C)=O)c(O)c1 |

| LC retention time [min] | Compound |
| --- | --- |
| 4.9 | COc1cc(-c2cc(=O)c3c(O)cc(OC4OC(C(=O)O)C(O)C(O)C4OC4OC(COC(=O)C=Cc5ccc(O)cc5)C(O)C(O)C4O)cc3o2)cc(OC)c1O (stereo unspecified) |
| 4.3 | COc1cc(C=CC(=O)NC=Cc2ccc(O)cc2)ccc1O |
| 5.97 | O=c1oc2cc(O)ccc2c2oc3cc(O)ccc3c12 |
| 7.57 | CC(C)=CCc1c(O)c(-c2cc(-c3cc(=O)c4c(O)cc(O)cc4o3)ccc2O)c2oc(-c3ccc(O)cc3)cc(=O)c2c1O |
| 3.7 | O=c1cc(-c2ccc(O)c(O)c2)oc2c(C3OC(CO)C(O)C(O)C3O)c(O)cc(O)c12 (stereo unspecified) |
| 7.24 | CC(C)=CCc1cc(-c2coc3cc(O)ccc3c2=O)ccc1O |
| 3.94 | C=CC1C(OC2OC(CO)C(O)C(O)C2O)OC=C(C(=O)O)C1CC1NCCc2c1[nH]c1ccccc21 (stereo unspecified) |
| 8.63 | C=CCc1ccc(O)c(-c2ccc(O)c(CC=C)c2)c1 |
| 5.73 | COc1ccc(-c2coc3cc(OC4OC(CO)C(O)C(O)C4O)cc(O)c3c2=O)cc1 (stereo unspecified) |
| 7.84 | CC(C)=CCc1c(O)cc(O)c(CC=C(C)C)c1CCc1ccc(O)c(O)c1 |
| 4.01 | O=C(CCc1ccc(O)cc1)c1c(O)c(C2OC(CO)C(O)C(O)C2O)c(O)c(C2OC(CO)C(O)C(O)C2O)c1O (stereo unspecified) |
| 8.75 | COc1ccc2ccc(=O)oc2c1CC=C(C)C |
| 3.64 | O=c1c(OC2OC(CO)C(O)C(O)C2O)c(-c2cc(O)c(O)c(O)c2)oc2cc(O)cc(O)c12 (stereo unspecified) |
| 5.08 | CC(=O)OC1C(C)OC(OC2C(c3c(O)cc(O)c4c(=O)cc(-c5ccc(O)cc5)oc34)OC(CO)C(O)C2O)C(O)C1O (stereo unspecified) |
| 4.08 | COc1cc2oc(-c3ccc(O)cc3)cc(=O)c2c(O)c1C1OC(CO)C(O)C(O)C1O (stereo unspecified) |
| 3.89 | O=c1cc(-c2ccc(O)cc2)oc2c(C3OCC(O)C(O)C3O)c(O)c(C3OCC(O)C(O)C3O)c(O)c12 (stereo unspecified) |
